From patent US8859541B2, “6-alkynylpyridines” (Boehringer Ingelheim International GmbH, priority 2012, dated 2014)

Key:
XIAP BIR3 = target: T1, XIAP BIR3 (Homo sapiens, UniProt P98170); experiment: XIAP BIR3 binding assay (DELFIA), displacement of SMAC peptide; conditions: GST-fusion BIR3 domain (aa 241 to 356) 10 nM, SMAC peptide 10 nM; activity of the (S)-isomers
T1 construct: covering amino acids 241 to 356; XIAP BIR3; made in house; host or cells: E. coli
In short: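 Each BIR3 domain (10 nM) incubated with biotinylated N-terminal SMAC peptide (10 nM) and compound for 1 h at room temp in Tris/NaCl buffer with BSA, DTT and Triton X-100. Captured on streptavidin plates; bound BIR3 detected by Eu-labelled anti-GST time-resolved fluorescence, giving IC50 values.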

cIAP1 BIR3 = target: T2, cIAP1 BIR3 (Homo sapiens, UniProt Q13490); experiment: cIAP1 BIR3 binding assay (DELFIA), displacement of SMAC peptide; conditions: GST-fusion BIR3 domain (aa 256 to 363) 10 nM, SMAC peptide 10 nM; activity of the (S)-isomers
T2 construct: covering amino acids 256 to 363; cIAP1 BIR3; made in house; host or cells: E. coli
Description: Biological Methods XIAP BIR3 and cIAP1 BIR3 Binding Assays (DELFIA)
Peptide […]-Lys(Biotin), representing the N-terminus of mature human SMAC (SMAC peptide), was used as interaction partner in the protein-peptide interaction assay.
BIR3 domains (10 nM) were incubated with SMAC peptide (10 nM) in Assay Buffer (50 mM Tris, 120 mM NaCl, 0.1% BSA, 1 mM DTT, 0.05% TritonX100) for one hour at room temperature in the presence of inhibitiory compounds. The assay mixture was transferred to a strepatvidin coated plate and incubated for one hour at room temperature to allow binding of the biotinylated peptide and associated BIR3 domains to the plate. After several washing steps Eu labeled anti-GST antibody (e.g. Perkin Elmer DELFIA Eu-N1-antiGST AD0250) was added to detect BIR3 domain-SMAC peptide interactions according to Perkin Elmer's instructions. […] Time resolved Europium fluoresecence was measured in a Wallac Victor using Standard assay settings.
DELFIA assay results were plotted against compound concentrations and Software GraphPad Prizm was used to calculate half maximal inhibitory concentrations (IC50 values).

T1 sequence (P98170 241-356): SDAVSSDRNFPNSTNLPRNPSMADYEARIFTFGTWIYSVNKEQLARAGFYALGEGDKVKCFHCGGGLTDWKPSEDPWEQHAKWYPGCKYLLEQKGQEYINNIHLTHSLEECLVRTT
T2 sequence (Q13490 256-363): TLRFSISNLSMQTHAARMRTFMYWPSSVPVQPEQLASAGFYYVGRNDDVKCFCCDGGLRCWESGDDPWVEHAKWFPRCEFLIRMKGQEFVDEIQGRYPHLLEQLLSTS

IC50 (XIAP BIR3)	IC50 (cIAP1 BIR3)	SMILES
96 nM	12 nM	CNC(C)C(=O)Nc1ccc(-c2cncc(C(=O)OC)c2)c(C#Cc2cccc(C)c2)n1 (stereo not drawn) [Example 13, methyl 5-[6-[[2-(methyl-amino)propanoyl]amino]-2-[2-(3-methylphenyl)ethynyl]-pyridin-3-yl]pyridine-3-carboxylate]
579 nM	1 nM	CNC(C)C(=O)Nc1ccc(-c2c(C)nc3ccccn23)c(C#Cc2ccc3c(ccc(=O)n3C)c2)n1 (stereo not drawn) [Example 26, 2-(methylamino)-N-[5-(2-methylimidazo[1,2-a]pyridin-3-yl)-6-[2-(1-methyl-2-oxoquinolin-6-yl)ethynyl]pyridin-2-yl]propanamide]
200 nM	1 nM	CNC(C)C(=O)Nc1ccc(-c2c(C)nc3ccccn23)c(C#Cc2ccc3ncccc3c2)n1 (stereo not drawn) [Example 28, 2-(methylamino)-N-[5-(2-methylimidazo[1,2-a]pyridin-3-yl)-6-(2-quinolin-6-ylethynyl)-pyridin-2-yl]propanamide]
145 nM	1 nM	CNC(C)C(=O)Nc1ccc(-c2c(C)nc3ccccn23)c(C#Cc2ccc3cnccc3c2)n1 (stereo not drawn) [Example 29, N-[6-(2-isoquinolin-6-yl-ethynyl)-5-(2-methyl-imidazo[1,2-a]pyridin-3-yl)-pyridin-2-yl]-2-(methylamino)-propanamide]
417 nM	1 nM	CNC(C)C(=O)Nc1ccc(-c2c(C)nc3ccccn23)c(C#Cc2ccc3nc(C)ccc3c2)n1 (stereo not drawn) [Example 30, 2-(methylamino)-N-[5-(2-methylimidazo[1,2-a]pyridin-3-yl)-6-[2-(2-methylquinolin-6-yl)ethynyl]pyridin-2-yl]propan-amide]
7380 nM		CC(N)C(=O)Nc1cccc(C#Cc2cccc(C(=O)OCC3CCOCC3)c2)n1 (stereo not drawn) [Example 214, oxan-4-ylmethyl 3-[2-[6-[[2-aminopropanoyl]-amino]pyridin-2-yl]ethynyl]benzoate]
2140 nM		CC(N)C(=O)Nc1cccc(C#Cc2ccsc2)n1 (stereo not drawn) [Example 216, 2-amino-N-[6-(2-thiophen-3-ylethynyl)pyridin-2-yl]propanamide]
6540 nM		CC(N)C(=O)Nc1cccc(C#Cc2ccncc2)n1 (stereo not drawn) [Example 218, 2-amino-N-[6-(2-pyridin-4-ylethynyl)pyridin-2-yl]propanamide]
359 nM		CC(N)C(=O)Nc1cccc(C#Cc2ccc(F)cc2)n1 (stereo not drawn) [Example 219, 2-amino-N-[6-[2-(4-fluorophenyl)ethynyl]pyridin-2-yl]propanamide]
2160 nM		COc1cccc(C#Cc2cccc(NC(=O)C(C)N)n2)c1 (stereo not drawn) [Example 220, 2-amino-N-[6-[2-(3-methoxyphenyl)ethynyl]pyridin-2-yl]propanamide]
222 nM		Cc1cccc(C#Cc2cccc(NC(=O)C(C)N)n2)c1 (stereo not drawn) [Example 221, 2-amino-N-[6-[2-(3-methylphenyl)ethynyl]pyridin-2-yl]propanamide]
1420 nM		CC(N)C(=O)Nc1cccc(C#Cc2ccccc2Cl)n1 (stereo not drawn) [Example 222, 2-amino-N-[6-[2-(2-chlorophenyl)ethynyl]pyridin-2-yl]propanamide]
3560 nM		CC(N)C(=O)Nc1cccc(C#CCc2ccccc2)n1 (stereo not drawn) [Example 224, 2-amino-N-[6-(3-phenylprop-1-ynyl)pyridin-2-yl]propanamide]
7040 nM		CC(N)C(=O)Nc1cccc(C#CC2=CCCCC2)n1 (stereo not drawn) [Example 225, 2-amino-N-[6-[2-(cyclohexen-1-yl)ethynyl]pyridin-2-yl]propanamide]
1890 nM		CC(N)C(=O)Nc1cc2ccccc2c(C#Cc2cncs2)n1 (stereo not drawn) [Example 227, 2-amino-N-[1-[2-(1,3-thiazol-5-yl)ethynyl]isoquinolin-3-yl]-propanamide]
2410 nM		CC(N)C(=O)Nc1cccc(C#Cc2c(F)cccc2F)n1 (stereo not drawn) [Example 230, 2-amino-N-[6-[2-(2,6-difluorophenyl)ethynyl]pyridin-2-yl]propanamide]

IC50 (XIAP BIR3)	IC50 (cIAP1 BIR3)	SMILES
4860 nM		CC(N)C(=O)Nc1cccc(C#Cc2cc(Cl)cc(Cl)c2)n1 (stereo not drawn) [Example 231, 2-amino-N-[6-[2-(3,5-dichlorophenyl)ethynyl]pyridin-2-yl]propanamide]
2910 nM		CC(N)C(=O)Nc1cccc(C#Cc2cc(F)cc(F)c2)n1 (stereo not drawn) [Example 233, 2-amino-N-[6-[2-(3,5-difluorophenyl)ethynyl]pyridin-2-yl]propanamide]
2190 nM		Cc1cc(C)cc(C#Cc2cccc(NC(=O)C(C)N)n2)c1 (stereo not drawn) [Example 235, 2-amino-N-[6-[2-(3,5-dimethylphenyl)ethynyl]pyridin-2-yl]propanamide]
1970 nM		CC(N)C(=O)Nc1cccc(C#Cc2c(Cl)cccc2Cl)n1 (stereo not drawn) [Example 236, 2-amino-N-[6-[2-(2,6-dichlorophenyl)ethynyl]pyridin-2-yl]propanamide]
5920 nM		CC(N)C(=O)Nc1cccc(C#Cc2nccs2)n1 (stereo not drawn) [Example 237, 2-amino-N-[6-[2-(1,3-thiazol-2-yl)ethynyl]pyridin-2-yl]propanainide]
7190 nM		CC(N)C(=O)Nc1cccc(C#Cc2cscn2)n1 (stereo not drawn) [Example 238, 2-amino-N-[6-[2-(1,3-thiazol-4-yl)ethynyl]pyridin-2-yl]propanamide]
4580 nM		CC(N)C(=O)Nc1cccc(C#Cc2cncs2)n1 (stereo not drawn) [Example 239, 2-amino-N-[6-[2-(1,3-thiazol-5-yl)ethynyl]pyridin-2-yl]propanamide]
3200 nM		CC(N)C(=O)Nc1cccc(C#Cc2ccco2)n1 (stereo not drawn) [Example 241, 2-amino-N-[6-[2-(furan-2-yl)ethynyl]pyridin-2-yl]propanamide]
4230 nM		CC(N)C(=O)Nc1cccc(C#Cc2ccc3ccccc3c2)n1 (stereo not drawn) [Example 242, 2-amino-N-[6-(2-naphthalen-2-ylethynyl)pyridin-2-yl]propanamide]
160 nM		CNC(C)C(=O)Nc1ccc(N(C)S(=O)(=O)c2ccccc2)c(C#Cc2ccccc2)n1 (stereo not drawn) [Example 243, N-[5-[benzenesulfonyl(methyl)amino]-6-(2-phenylethynyl)pyridin-2-yl]-2-(methylamino)propanamide]
1470 nM		CNC(C)C(=O)Nc1ccc(N(C)C(=O)C2CCOCC2)c(C#Cc2ccccc2)n1 (stereo not drawn) [Example 244, N-methyl-N-[6-[2-(methylamino)propanoylamino]-2-(2-phenylethynyl)pyridin-3-yl]oxane-4-carboxamide]
1290 nM		CNC(C)C(=O)Nc1ccc(NC(=O)C2CCCC2)c(C#Cc2ccccc2)n1 (stereo not drawn) [Example 245, N-[6-[[2-(methylamino)-propanoyl]amino]-2-(2-phenylethynyl)pyridin-3-yl]-cyclopentanecarboxamide]
1520 nM		CNC(C)C(=O)Nc1ccc(NC(=O)C2CCOCC2)c(C#Cc2ccccc2)n1 (stereo not drawn) [Example 246, N-[6-[[2-(methylamino)-propanoyl]amino]-2-(2-phenylethynyl)pyridin-3-yl]-oxane-4-carboxamide]
745 nM		CNC(C)C(=O)Nc1ccc(N(C)C(=O)c2ccccc2)c(C#Cc2ccccc2)n1 (stereo not drawn) [Example 247, N-methyl-N-[6-[[2-(methyl-amino)propanoyl]amino]-2-(2-phenylethynyl)pyridin-3-yl]-benzamide]
794 nM		CNC(C)C(=O)Nc1ccc(N(C)C(=O)C2CCCC2)c(C#Cc2ccccc2)n1 (stereo not drawn) [Example 248, N-methyl-N-[6-[[2-(methyl-amino)propanoyl]amino]-2-(2-phenylethynyl)pyridin-3-yl]-cyclopentanecarboxamide]
